Assay results taken from patent US20180125835A1, “Dosage and Use of an A2A Antagonist” (H. Lundbeck A/S, priority 2014, published 2018).

How the values were obtained:
A2A receptor [1] = target: A2A receptor (Canis lupus familiaris, UniProt P11617); assay: Adenosine receptor binding affinity, dog A2A
A2A receptor [2] = target: A2A receptor (Callithrix jacchus, UniProt A0A8I3X4X6); assay: Adenosine receptor binding affinity, marmoset A2A
A2A receptor [3] = target: A2A receptor (Rattus norvegicus, UniProt P30543); assay: Striatal A2A occupancy in rats by ex vivo autoradiography; design: incubation of the tracer with brain slices obtained from rats dosed with compound 504; from tissue; host or cells: striatum in coronal brain sections of male CD rats (Charles River Japan)
Sequence of A2A receptor (Rattus norvegicus, UniProt P30543) (P30543 whole entry): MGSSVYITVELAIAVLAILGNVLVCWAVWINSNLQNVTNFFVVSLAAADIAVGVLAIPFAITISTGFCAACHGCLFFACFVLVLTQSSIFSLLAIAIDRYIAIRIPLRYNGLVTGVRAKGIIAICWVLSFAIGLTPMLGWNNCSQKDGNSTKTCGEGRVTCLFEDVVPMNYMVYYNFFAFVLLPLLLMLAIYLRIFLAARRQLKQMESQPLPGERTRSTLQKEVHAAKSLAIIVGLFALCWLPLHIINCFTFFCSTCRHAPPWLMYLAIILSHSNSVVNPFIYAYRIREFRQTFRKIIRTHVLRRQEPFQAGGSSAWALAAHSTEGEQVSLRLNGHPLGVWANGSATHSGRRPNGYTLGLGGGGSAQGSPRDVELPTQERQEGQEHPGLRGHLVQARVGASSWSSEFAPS
Description: After that the artery and vein blood was collected into tubes containing heparin. Immediately after that the brain was removed and ebbed in OCT compound and frozen in 2-methyl butane cooled with dry ice. The frozen brains were preserved at −80 C until use.
Coronal sections (20 μm) at about bregma 1.2 mm were prepared using a cyromicrotome (Coldtome, set temperature—20 C), Sakura) and placed on a slide glass (Super Frost, Matsunami Glass; 2 or 3 sections per glass). The brain sections collected on the slide glass were preserved at −80 C. Seventy μL of the reaction solution containing the tracer at 0.1 or 0.3 nmol/L was applied on the brain section and incubated at room temperature for the preset time. The reaction solution containing the tracer was handled using siliconized tools. After the incubation with the tracer, the brain section was washed for 1 minute with ice-cold wash solution three times and rinsed with ice-cold water twice. Non-specific binding of the tracer was evaluated by performing the same reaction with the brain section prepared from drug-untreated rats in the presence of 0.1 mmol/1 NECA. The brain section was dried at room temperature, exposed to the imaging plate (BAS-TR2040, Fuji Film) in a cassette, and left in a shield box for about 24 hours. The radioactivity was recorded under the following conditions: Resolution: 50 μm; Gradation: 256; Sensitivity: 10000; Latitude:5.
These plasma samples were used as calibration curve samples.
To pre-treat plasma samples, the internal standard (I.S.) was dissolved in acetonitrile to prepare an I.S. solution at 0.03 μg/mL. Plasma sample was diluted with control plasma whenever necessary. To 0.1 mL of plasma sample, 10 μL of the I.S. solution and 1 mL of 10 mmol/L ammonium acetate were added and stirred to prepare the sample for pretreatment. The sample was pretreated using Oasis HLB Extraction Plate (30 mg, Waters). Each well was serially conditioned with 1 mL of methanol and water. One ml of the sample for pretreatment was loaded on a well. After each well was washed with 1 mL of 5% vol % methanol, the analyte was eluted with 1 mL acethonitrile. The eluate was evaporated under nitrogen gas stream and the residue was redssolved in 0.1 mL of the reconstituted solution. The sample was centrifuged at 4 C, about 1800×G for 5 minutes using […] (0.45 μm hydrophilic PVDF, Whatman). An aliquote of the filtrate was used for analysis.
Calculation of the A2A receptor occupancy in striatum was done using the below formula
Φ(%)=(1−(PSLKW−BG/A)/(PSLctrl−BG/A))*100
Where PSLKW- and PSLctrl are PSL values in the ROI of compound 504-[…] animal, respectively. PLS is Photo stimulated luminescence for detection of tracer and ROI is region of interest for tracer measurement in striatum. […]

[4] = PET study, pharmacokinetic assessments; assay type: in vivo; details: human, plasma, single oral doses 0.5 to 5 mg
Text: The pharmacokinetic parameters of compound 504 were estimated using non-compartmental analysis.

A1 receptor [5] = target: T1, A1 receptor (Canis lupus familiaris, UniProt P11616); assay: Adenosine receptor binding affinity, dog A1
T1 sequence (P11616 1-326): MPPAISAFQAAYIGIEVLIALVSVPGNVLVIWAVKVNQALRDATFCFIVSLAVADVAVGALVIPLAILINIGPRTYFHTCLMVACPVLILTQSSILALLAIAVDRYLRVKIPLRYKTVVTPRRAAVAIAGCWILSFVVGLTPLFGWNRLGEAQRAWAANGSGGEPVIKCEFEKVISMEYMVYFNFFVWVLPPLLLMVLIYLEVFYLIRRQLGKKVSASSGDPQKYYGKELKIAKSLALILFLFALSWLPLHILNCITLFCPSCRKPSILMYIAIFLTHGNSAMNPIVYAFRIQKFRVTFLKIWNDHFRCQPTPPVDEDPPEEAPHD

[6] = Safety and tolerability study, adverse events (Parts A, B, C)
Description: The study was conducted in three parts: Parts A, B, and C.
Parts A and B were single-dose escalations to determine the safety and tolerability in young healthy men, and in elderly men and women, respectively. Three doses (Cohorts A1 to A3) were tested in healthy young men: 1 mg (N=6), 5 mg (N=6), and 10 mg (N=5); placebo (N=8, total of the three cohorts). […] Two doses (Cohorts B1 and B2) were tested in healthy elderly men and women: 5 mg (N=9 men/4 women), 10 mg (N=4 men/4 women); placebo (N=6 men/4 women, total of the three cohorts). […] A washout period of at least 7 days separated each dose administration.

A1 receptor [7] = target: T2, A1 receptor (Rattus norvegicus, UniProt P25099); assay: Adenosine receptor binding affinity, rat A1
T2 sequence (P25099 1-326): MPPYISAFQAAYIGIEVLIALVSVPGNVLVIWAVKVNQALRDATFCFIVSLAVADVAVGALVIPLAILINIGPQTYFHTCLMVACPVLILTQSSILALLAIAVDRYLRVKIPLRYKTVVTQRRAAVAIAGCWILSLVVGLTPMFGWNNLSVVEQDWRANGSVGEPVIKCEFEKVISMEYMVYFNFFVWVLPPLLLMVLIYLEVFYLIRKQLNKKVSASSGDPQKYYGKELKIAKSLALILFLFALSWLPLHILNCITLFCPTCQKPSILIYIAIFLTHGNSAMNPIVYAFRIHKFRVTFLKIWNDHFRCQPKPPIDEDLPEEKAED

[8] = Part A, healthy young men, 1, 5 and 10 mg dose groups
[9] = Part B, healthy elderly, 5 and 10 mg dose groups
[10] = Part C, 5 mg on three occasions

Sequence of A2A receptor (Callithrix jacchus, UniProt A0A8I3X4X6) (A0A8I3X4X6 1-410): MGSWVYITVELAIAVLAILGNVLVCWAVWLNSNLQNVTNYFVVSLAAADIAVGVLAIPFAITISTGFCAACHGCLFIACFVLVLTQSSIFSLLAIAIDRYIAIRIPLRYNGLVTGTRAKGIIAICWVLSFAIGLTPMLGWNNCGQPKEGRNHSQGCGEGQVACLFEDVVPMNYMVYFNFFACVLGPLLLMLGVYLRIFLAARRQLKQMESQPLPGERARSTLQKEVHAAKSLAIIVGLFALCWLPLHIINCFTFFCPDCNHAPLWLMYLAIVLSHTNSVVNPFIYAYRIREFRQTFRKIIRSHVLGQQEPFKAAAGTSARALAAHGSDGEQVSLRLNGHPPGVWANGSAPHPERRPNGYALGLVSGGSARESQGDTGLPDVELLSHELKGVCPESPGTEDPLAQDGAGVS
Sequence of A2A receptor (Canis lupus familiaris, UniProt P11617) (P11617 whole entry): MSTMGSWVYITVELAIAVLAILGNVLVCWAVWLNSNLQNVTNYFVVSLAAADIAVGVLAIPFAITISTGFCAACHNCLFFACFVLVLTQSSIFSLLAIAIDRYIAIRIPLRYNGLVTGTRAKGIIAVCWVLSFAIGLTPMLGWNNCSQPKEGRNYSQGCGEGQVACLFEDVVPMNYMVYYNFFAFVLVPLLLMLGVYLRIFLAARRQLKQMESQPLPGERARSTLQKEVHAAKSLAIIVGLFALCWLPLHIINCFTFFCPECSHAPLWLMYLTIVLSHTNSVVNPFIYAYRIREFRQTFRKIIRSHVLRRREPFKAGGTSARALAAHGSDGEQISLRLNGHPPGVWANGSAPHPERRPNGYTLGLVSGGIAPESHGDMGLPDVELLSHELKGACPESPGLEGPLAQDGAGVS

Cc1ccc(C(=O)Nc2nc(-c3ccco3)c(C(=O)C3CCOCC3)s2)cn1 [Compound 504]
Ki (A2A receptor [1]): 0.283 ± 0.0269 nM
Ki (A2A receptor [2]): 0.113 ± 0.0046 nM
equilibration half-life (A2A receptor [3]; hysteresis evaluation, semi compartment PK model, rat): < 0.5 h
EC80 plasma concentration of rat striatal occupancy (A2A receptor [3]; predicted from rat occupancy Emax PK/PD model): 1.25 µg/mL
EC50 (A2A receptor [3]; rat, 0.3 mg/kg oral, Emax model, 95% CI 113 to 128 ng/mL, read-out: EC50 plasma concentration for striatal A2A receptor occupancy (converted)): 304 nM
receptor occupancy at 0.175 µg/mL (A2A receptor [3]; rat, read-out: A2A occupancy corresponding to marmoset EC80 of 175 ng/mL): > 50%
Tmax [4]: 1 to 2 h
Ki (A1 receptor [5]): 450 ± 51.1 nM
insomnia ([6]; Part A, 1 mg group): not reported
subjects reporting insomnia ([6]; Part A, 5 mg group (N=6)): 4 subjects
subjects reporting insomnia ([6]; Part A, 10 mg group (N=5)): 5 subjects
number of AEs [6, 8]: 36
subjects with AEs [6, 8]: 13 of the 17
number of severe adverse events ([6]; Part B, 10 mg group): 5
subjects with severe adverse events ([6]; Part B, 10 mg group): Three
dose considered to approach the maximum tolerated dose ([6]; Part B, elderly subjects): ~10 mg
number of AEs [6, 9]: 53
subjects with AEs [6, 9]: 16 of the 21
events of mild insomnia ([6]; Part C): 12
events of moderate insomnia ([6]; Part C): 2
number of moderate AEs ([6]; Part C): 15
number of severe AEs ([6]; Part C): 3
number of AEs [6, 10]: 90
subjects with AEs [6, 10]: 11 of the 12
safety and tolerability ([6]; Part C, 5 mg single doses, fed and fasting states): safe and tolerated
maximal tolerated dosage ([6]; single dose, insomnia limiting): 10 mg
Ki (A1 receptor [7]): 50.7 ± 3.18 nM
